The results in this text go back to patent US9765063B2, “Amido compounds as RORγt modulators and uses thereof” (New York University, priority 2011, dated 2017).

Entries after “also recorded” stand apart in the source; their conditions may differ. Where two headings read alike, the source gives them in different places.

Usually half-life stands for the time needed for the level to fall by half in the phase considered. One may read the IC50 as the concentration that gives 50% inhibition.

The test system of data set [1] is human Th1 cell differentiation. In words: Human Th1 cell differentiation, IFNγ production (counter-screen, FIG. 2). The following applies: FIG. 2, FACS, 0.5 μM, naive CD4 T cells, IL12 and IL2; listed as NCGC00242624. It is filed as cell-based. How it is done:
(§1) For Th1 differentiation, IL12 (10 ng/ml) and IL2 (100 U/ml) were added to naive CD4 T cell cultures instead of TGFβ and IL6.
Background: Counterscreens check selectivity or assay interference.

The nature of data set [2]: Half-life in Human Liver Microsomes (HLM). It counts as in vitro ADME. How it is done:
Test compounds (1 μM) are incubated with 3.3 mM MgCl2 and 0.78 mg/mL HLM (HL101) in 100 mM potassium phosphate buffer (pH 7.4) at 37° C. on the 96-deep well plate. The reaction mixture is split into two groups, a non-P450 and a P450 group. NADPH is only added to the reaction mixture of the P450 group. An aliquot of samples of the P450 group is collected at 0, 10, 30, and 60 min time points, where the 0 min time point indicated the lime at which NADPH is added into the reaction mixture of the P450 group. […] Collected aliquots are extracted with acetonitrile solution containing an internal standard. […] The compound concentration in supernatant is measured by LC/MS/MS system.
The half-life value is obtained by plotting the natural logarithm of the peak area ratio of compounds/internal standard versus time. The slope of the line of best fit through the points yields the rate of metabolism (k). This is converted to a half-life value using following equations: Half-life=ln 2/k

In data set [3] the target is T1, RORγt (Mus musculus, UniProt P51450).
T1 construct: expressed in transfected cells; the other entry of the earlier key: GAL4 (P04386, Regulatory protein GAL4)
T1 sequence (P51450 with tags, fused parts or gaps): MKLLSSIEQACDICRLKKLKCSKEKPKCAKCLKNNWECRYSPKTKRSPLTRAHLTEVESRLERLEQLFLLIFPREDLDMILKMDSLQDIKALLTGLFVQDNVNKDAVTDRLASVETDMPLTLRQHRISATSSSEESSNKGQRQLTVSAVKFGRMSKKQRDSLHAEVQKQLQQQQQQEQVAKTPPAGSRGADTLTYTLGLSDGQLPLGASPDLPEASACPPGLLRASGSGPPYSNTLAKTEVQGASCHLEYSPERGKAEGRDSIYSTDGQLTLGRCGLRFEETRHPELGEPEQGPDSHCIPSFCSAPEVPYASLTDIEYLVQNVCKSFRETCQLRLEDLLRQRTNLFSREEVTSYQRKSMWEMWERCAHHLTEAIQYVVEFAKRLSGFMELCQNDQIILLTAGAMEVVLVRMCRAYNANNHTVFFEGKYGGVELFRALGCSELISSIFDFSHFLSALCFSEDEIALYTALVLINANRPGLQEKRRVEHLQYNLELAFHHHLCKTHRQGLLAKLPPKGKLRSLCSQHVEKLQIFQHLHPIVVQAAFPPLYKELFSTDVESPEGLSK
In words: RORγt S2 cell reporter assay (Gal4-RORγt fusion, UAS-luciferase). It counts as cell-based. An excerpt:
Methods: The Drosophila S2 cell line was originally purchased from Invitrogen and was maintained in Schneider's medium supplemented with 10% heat-inactivated bovine fetal calf serum and antibiotics (Invitrogen). […] The resulting chimeric gene was subcloned into the copper inducible pMT/V5-His A vector (available from Invitrogen).
Renilla luciferase construct under the polIII promoter was obtained from Dr. Dasgupta's laboratory (NYU medical center). In order to generate stable cell lines, cells were co-transfected with pMT-G4DBD-RORγt, pMT-G4DBD-RORα, pMT-G4DBD-DHR3, or pMT-G4DBDVP16 and pHygro plasmids (Invitrogen) and screened for resistant colonies in the presence of hygromycin (0.3 mg/mL). […] Using similar methods, stable clones with genomic integration of the luciferase reporters and other reporters were generated such as pMT-RORα_luc, pMT-DHR3_luc, or pMT-VP16_luc.
Methods: 600 G4DBD-RORγ/γt-luc reporter (#25) or G4DBD-VP16-luc reporter cells were distributed into each well of 1,536-well white bottom plates in 4 μl S2 cell culture volume containing hygromicin (300 μg/ml) and puromycin (2 μg/ml). […] After one-hour incubation, 1 of culture medium solution containing copper sulfate (to final 0.7 mM) and 10 μM RORγ/γt antagonists were added to each well. After 20-hour incubation at ambient temperature, 1.5 μl firefly luciferase detection mix was added and the luciferase activities were measured in 10 min. ViewLux luminometers were used for measuring luciferase signal.
A cell-based reporter assay was used to detect RORγt-mediated activity. This assay, called RORγt employed Drosophila Schneider cells that were stably transfected with two vectors: a gene expressing a fusion of the Gal4 DNA binding domain and RORγt transactivation domain under the control of the metallothionine promoter and a Photinus luciferase reporter regulated by the Gal4 binding site enhancer, UAS. […] Cells (600/well) were dispensed into white solid 1536-well plates (Greiner) using a solenoid-based dispenser. Following transfer of […] compound or DMSO vehicle by a pin tool, the plates were incubated 1 hr at ambient temperature, and 1 uL/well copper sulfate (700 uM final concentration) was added. The plates were centrifuged 15 s at 1000 RPM and incubated 20 hr at ambient temperature. After addition of 1.5 uL Photinus luciferase detection reagent, the plates were incubated 10 min at ambient temperature and then read by a ViewLux (Perkin Elmer) to detect luminescence. […] Efficacy is expressed as % of the maximal response of control inhibitor (Digoxin), set at 100%.

Data set [4] deals with RORγt. In words: RORγt overexpression dependent IL17a production in human CD4 T cells (FIG. 3). It is filed as cell-based. The following applies: FIG. 3, FACS, 0.5 μM; listed as NCGC00242624. How it is done:
Briefly, CD3+ CD4+ CD45RA+ naive human T cells were isolated from peripheral blood derived from healthy donors. The naive T cells were cultured in XVIVO-20 (Lonza) medium for 7 days in the presence of IL2 and stimulatory CD3 and CD28 antibodies. Cells were infected with lentivirus encoding human RORα or RORγ and compound or DMSO was added on day 2. FACS plot analysis is shown after gating on GFP expressing (virus infected) cells.

For data set [5], the system named is human Th17 cell differentiation. In words: Human Th17 cell differentiation (FACS, FIG. 2). It counts as cell-based. The following applies: FIG. 2, FACS, 0.5 μM; listed as NCGC00242624. How it is done:
• 1) S2 cell reporter system: Identified hits from HTS are further screened and their specificity confirmed by testing against RORγ-luc, VP16-luc, RORα-luc, and DHR3-luc reporter S2 cell lines. Compounds either having no activity on VP16, RORα, and DHR3 or having ten times higher IC50 values on such reporters are selected for further tests. • 2) Cytokine induced mouse Th17 cells differentiation. Effects on mouse endogenous RORγt in a relevant physiological setting were determined by testing compounds in the Th17 cell differentiation assay. Compounds having RORγt inhibitory activity are predicted to suppress Th17 cell differentiation. Th1 or regulatory T cell differentiation was used as a counter-screen method to select specific compounds that only affect Th17 cell differentiation without having pleiotrophic effects on general T cell proliferation or cytokine production. • 3) ROR dependent Th17 cell differentiation. Compounds were further tested, by examining their effects on T cells expressing RORα or RORγ. […] Compounds affecting IL17a production or ROR regulatory pathways, however, are expected to inhibit both. • 4) Human Th17 cell differentiation. Compound effects on human RORγt will be tested by treating human cord blood CD4 T cells with select compounds to determine if such compounds alter differentiation into Th17 lineages.
as §1

Take `COc1cc(O)c(C(CC(=O)N2CC(C)CC(C)C2)c2ccc(C(=O)O)cc2)c(OC)c1` (stereo not shown) [Compound 99, 4-(3-(3,5-Dimethylpiperidin-1-yl)-1-(2-hydroxy-4,6-dimethoxyphenyl)-3-oxopropyl)benzoic acid]: the “Th1 cell differentiation, as measured by IFNγ production” value in data set [1] is on record as “does not inhibit Th1 cell differentiation”. The “% Remaining @ 60 min” value in data set [2] (1 μM compound, 0.78 mg/mL HLM, 37° C., 60 min) came to 51.36%. For the same molecule, in data set [2] (HLM, Table 3 data), the “stability compared with compounds 150 and 157” value was “better or improved stability over the compounds with IDs 150 and 157”. The “stability compared with verapamil” value in data set [2] (HLM, Table 3 data) is “improved stability with respect to verapamil”. Moreover, the half-life at 1 μM in data set [2] (human, human liver microsomes, pH 7.4, 1 μM compound, 0.78 mg/mL HLM, 37° C., Half-life=ln 2/k) worked out at 1.07 h. Further, in data set [2] (human, human liver microsomes, pH 7.4, 1 μM compound, 0.78 mg/mL HLM, 37° C., read-out: CLint (uM/Min/mg proteins)), the microsomal CLint at 1 μM amounted to 21.6 µL/min/mg. In addition, the IC50 on RORγt [3] (Table 1, Drosophila S2 cells, luciferase reporter, read-out: IC50) was 1000 to 10000 nM; on RORγt [3] (Table 2, from the S2 cell reporter assay, listed for comparison, read-out: S2 cell RORg IC50), less than 1000 nM. Further, in the data set with RORγt [4], the “RORγt overexpression dependent IL17a production in human CD4 T cells” value is reported as “selectively inhibit RORγt dependent; also recorded: selectively inhibits RORγt overexpression dependent IL17a production”. Moreover, in data set [5], the “human Th17 cell differentiation” value is “selectively suppress human Th17; also recorded: suppresses human Th17 cell differentiation to a degree similar to that of NCGC00238427; also recorded: selectively suppresses human Th17 cell differentiation”.
